Literature values in paper PMC7343282, “Tissue Distribution of Several Series of Cationic Surfactants in Rainbow Trout (Oncorhynchus mykiss) Following Exposure via Water” (Environmental Science & Technology, 2020).

System: carp (Cyprinus carpio)
Design: method as in ECHA Registration dossier for octadecylamine
Details: after acidic methanol wash to remove the mucous, validity uncertain, ref ECHA Registration dossier for octadecylamine; cited from earlier work

In the case of `CCCCCCCCCCCCCCCCN` [P16, hexadecylamine], the BCF is given as 300 L/kg.
